Measurements taken from the supplement of paper PMC10307832.

Assays:
Experiment in all cases: relative viability (nuclei count vs DMSO), 5 days (fraction); higher = more cells survive
[1] = compound: CC(C)C[C@@H](C(=O)N[C@H](C(=O)OC1CCCC1)c1ccccc1)[C@H](O)C(=O)NO [Tosedostat] + CS(=O)(=O)N1CCN(Cc2cc3nc(-c4cccc5[nH]ncc45)nc(N4CCOCC4)c3s2)CC1 [Pictilisib] (partner 1 µM)
Summary of the method: (§1)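 Values are medians from duplicate plates. Each reflects relative viability, defined as the nuclei count of treated wells over that of vehicle wells. Lung cancer cell lines in 1536-well plates were pin-tool dosed one day after seeding with one drug alone or with a fixed anchor-drug dose plus five library-drug doses (not always all listed) in √10 steps, then fixed, stained and imaged at 4× after 5 days.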

[2] = compound: CC(C)C[C@@H](C(=O)N[C@H](C(=O)OC1CCCC1)c1ccccc1)[C@H](O)C(=O)NO [Tosedostat] + CC(=O)Nc1cccc(-n2c(=O)n(C3CC3)c(=O)c3c(Nc4ccc(I)cc4F)n(C)c(=O)c(C)c32)c1 [Trametinib] (partner 0.02 µM)
Summary of the method: as §1

[3] = compound: CC(C)C[C@@H](C(=O)N[C@H](C(=O)OC1CCCC1)c1ccccc1)[C@H](O)C(=O)NO [Tosedostat] + NC(=O)Nc1cc(-c2cccc(F)c2)sc1C(=O)N[C@H]1CCCNC1 [AZD7762] (partner 0.2 µM)
Summary of the method: as §1

[4] = compound: CC1=NN=C(O1)C2=NN=C(C=C2)N3CCC(CC3)OC4=C(C=CC(=C4)F)Cl + N=C(N)NC(=N)NCCc1ccccc1 [Phenformin] (partner 250 µM)
Summary of the method: as §1

## Calu-6
[1]; first compound 0.02 µM
  relative viability: 0.975
[1]; first compound 0.06325 µM
  relative viability: 0.87
[1]; first compound 0.2 µM
  relative viability: 0.778
[1]; first compound 0.6325 µM
  relative viability: 0.757
[1]; first compound 2 µM
  relative viability: 0.651

## EBC-1
[1]; first compound 0.02 µM
  relative viability: 0.361
[1]; first compound 0.06325 µM
  relative viability: 0.417
[1]; first compound 0.2 µM
  relative viability: 0.232
[1]; first compound 0.6325 µM
  relative viability: 0.266
[1]; first compound 2 µM
  relative viability: 0.281

## NCI-H596
[2]; first compound 0.02 µM
  relative viability: 0.842
[2]; first compound 0.06325 µM
  relative viability: 0.848
[2]; first compound 0.2 µM
  relative viability: 0.861
[2]; first compound 0.6325 µM
  relative viability: 0.901
[2]; first compound 2 µM
  relative viability: 0.803
[1]; first compound 0.02 µM
  relative viability: 0.424
[1]; first compound 0.06325 µM
  relative viability: 0.471
[1]; first compound 0.2 µM
  relative viability: 0.385
[1]; first compound 0.6325 µM
  relative viability: 0.446
[1]; first compound 2 µM
  relative viability: 0.388
[3]; first compound 0.02 µM
  relative viability: 1.04
[3]; first compound 0.06325 µM
  relative viability: 1.21
[3]; first compound 0.2 µM
  relative viability: 1.13
[3]; first compound 0.6325 µM
  relative viability: 1.17
[3]; first compound 2 µM
  relative viability: 1.2
[4]; first compound 0.253 µM
  relative viability: 0.648
[4]; first compound 0.8 µM
  relative viability: 0.611
[4]; first compound 2.53 µM
  relative viability: 0.697
[4]; first compound 8 µM
  relative viability: 0.525

## A-427
[2]; first compound 0.02 µM
  relative viability: 0.789
[2]; first compound 0.06325 µM
  relative viability: 0.748
[2]; first compound 0.2 µM
  relative viability: 0.818
[2]; first compound 0.6325 µM
  relative viability: 0.719
[2]; first compound 2 µM
  relative viability: 0.701
[1]; first compound 0.02 µM
  relative viability: 0.736
[1]; first compound 0.06325 µM
  relative viability: 0.643
[1]; first compound 0.2 µM
  relative viability: 0.727
[1]; first compound 0.6325 µM
  relative viability: 0.662
[1]; first compound 2 µM
  relative viability: 0.564
[3]; first compound 0.02 µM
  relative viability: 0.787
[3]; first compound 0.06325 µM
  relative viability: 0.804
[3]; first compound 0.2 µM
  relative viability: 0.773
[3]; first compound 0.6325 µM
  relative viability: 0.682
[3]; first compound 2 µM
  relative viability: 0.698
[4]; first compound 0.253 µM
  relative viability: 0.285
[4]; first compound 2.53 µM
  relative viability: 0.278
[4]; first compound 8 µM
  relative viability: 0.258

## NCI-H441
[2]; first compound 0.02 µM
  relative viability: 0.478
[2]; first compound 0.06325 µM
  relative viability: 0.579
[2]; first compound 0.2 µM
  relative viability: 0.499
[2]; first compound 0.6325 µM
  relative viability: 0.562
[2]; first compound 2 µM
  relative viability: 0.461
[1]; first compound 0.02 µM
  relative viability: 0.549
[1]; first compound 0.06325 µM
  relative viability: 0.443
[1]; first compound 0.2 µM
  relative viability: 0.461
[1]; first compound 0.6325 µM
  relative viability: 0.379
[1]; first compound 2 µM
  relative viability: 0.328
[3]; first compound 0.02 µM
  relative viability: 1.39
[3]; first compound 0.06325 µM
  relative viability: 1.09
[3]; first compound 0.2 µM
  relative viability: 1.13
[3]; first compound 0.6325 µM
  relative viability: 0.85
[3]; first compound 2 µM
  relative viability: 0.718
[4]; first compound 0.253 µM
  relative viability: 0.715
[4]; first compound 0.8 µM
  relative viability: 0.498
[4]; first compound 2.53 µM
  relative viability: 0.699
[4]; first compound 8 µM
  relative viability: 0.619

## NCI-H1563
[1]; first compound 0.02 µM
  relative viability: 0.636
[1]; first compound 0.06325 µM
  relative viability: 0.657
[1]; first compound 0.2 µM
  relative viability: 0.708
[1]; first compound 0.6325 µM
  relative viability: 0.712
[1]; first compound 2 µM
  relative viability: 0.616
[4]; first compound 0.253 µM
  relative viability: 0.646
[4]; first compound 0.8 µM
  relative viability: 0.659
[4]; first compound 2.53 µM
  relative viability: 0.612
[4]; first compound 8 µM
  relative viability: 0.641

## NCI-H358
[2]; first compound 0.02 µM
  relative viability: 0.144
[2]; first compound 0.06325 µM
  relative viability: 0.126
[2]; first compound 0.2 µM
  relative viability: 0.13
[2]; first compound 0.6325 µM
  relative viability: 0.113
[2]; first compound 2 µM
  relative viability: 0.133
[1]; first compound 0.02 µM
  relative viability: 0.336
[1]; first compound 0.06325 µM
  relative viability: 0.366
[1]; first compound 0.2 µM
  relative viability: 0.287
[1]; first compound 0.6325 µM
  relative viability: 0.239
[1]; first compound 2 µM
  relative viability: 0.327
[3]; first compound 0.02 µM
  relative viability: 0.71
[3]; first compound 0.06325 µM
  relative viability: 0.471
[3]; first compound 0.2 µM
  relative viability: 0.434
[3]; first compound 0.6325 µM
  relative viability: 0.317
[3]; first compound 2 µM
  relative viability: 0.34
[4]; first compound 0.253 µM
  relative viability: 0.369
[4]; first compound 0.8 µM
  relative viability: 0.304
[4]; first compound 2.53 µM
  relative viability: 0.359
[4]; first compound 8 µM
  relative viability: 0.305

## LOU-NH91
[2]; first compound 0.02 µM
  relative viability: 0.787
[2]; first compound 0.06325 µM
  relative viability: 0.803
[2]; first compound 0.2 µM
  relative viability: 0.824
[2]; first compound 0.6325 µM
  relative viability: 0.766
[2]; first compound 2 µM
  relative viability: 0.777
[1]; first compound 0.02 µM
  relative viability: 0.594
[1]; first compound 0.06325 µM
  relative viability: 0.53
[1]; first compound 0.2 µM
  relative viability: 0.568
[1]; first compound 0.6325 µM
  relative viability: 0.495
[1]; first compound 2 µM
  relative viability: 0.501
[3]; first compound 0.02 µM
  relative viability: 0.805
[3]; first compound 0.06325 µM
  relative viability: 0.862
[3]; first compound 0.2 µM
  relative viability: 0.802
[3]; first compound 0.6325 µM
  relative viability: 0.745
[3]; first compound 2 µM
  relative viability: 0.624
[4]; first compound 0.253 µM
  relative viability: 0.64
[4]; first compound 0.8 µM
  relative viability: 0.598
[4]; first compound 2.53 µM
  relative viability: 0.69
[4]; first compound 8 µM
  relative viability: 0.679

## NCI-H3122
[2]; first compound 0.02 µM
  relative viability: 0.201
[2]; first compound 0.06325 µM
  relative viability: 0.258
[2]; first compound 0.2 µM
  relative viability: 0.193
[2]; first compound 0.6325 µM
  relative viability: 0.25
[2]; first compound 2 µM
  relative viability: 0.183
[1]; first compound 0.02 µM
  relative viability: 0.663
[1]; first compound 0.06325 µM
  relative viability: 0.659
[1]; first compound 0.2 µM
  relative viability: 0.615
[1]; first compound 0.6325 µM
  relative viability: 0.692
[1]; first compound 2 µM
  relative viability: 0.704
[3]; first compound 0.02 µM
  relative viability: 1.1
[3]; first compound 0.06325 µM
  relative viability: 0.919
[3]; first compound 0.2 µM
  relative viability: 0.894
[3]; first compound 0.6325 µM
  relative viability: 0.875
[3]; first compound 2 µM
  relative viability: 1.14
[4]; first compound 0.253 µM
  relative viability: 0.324
[4]; first compound 0.8 µM
  relative viability: 0.282
[4]; first compound 2.53 µM
  relative viability: 0.253
[4]; first compound 8 µM
  relative viability: 0.275
